Data published in patent publication US4672068A, “Antihypertensive 1,4-dihydropyridines having a conjugated ester” (Fujirebio Kabushiki Kaisha, priority 1984, dated 1987).

Test system: Male spontaneously hypertensive rats (SHR), arterial blood pressure
Assay: Depressor response after intravenous administration (30 μg/kg), Table 1
Assay type: in vivo, rat
Conditions: for Duration: '90<' means greater than 90
Protocol: Male spontaneously hypertensive rats (SHR) which had mean arterial blood pressures higher than 140 mmHg were used for the experiments. Arterial blood pressure was measured through the catherized artery with a pressure transducer (MPU-0.5, manufactured by Nihon Kohden Kabushiki Kaisha). The catheter was inserted into the abdominal aorta via the median coccygcal artery of SHR under light ether anesthesia. The recordings were made on a rectigraph (manufactured by Sanei Sokki Kabushiki Kaisha). The 1,4-dihydropyridine derivatives prepared in the foregoing examples were administered with catheter which was inserted previously into the caudal vein or duodenum at least two hours after the operation. SHR were restrained with wire mesh cage immediately after the operation. Each derivative to be tested was dissolved in 1.5% PVP/ethanol, and then diluted with 0.9% saline or intravenous administration (30 μg/kg), or suspended in 5% gum arabic solution of intraduodenal administration (1 mg/kg).

| Compound | The time to reach the lowest BP [min] | ΔBP (Maximum depressor response) [mmHg] | Duration [min] |
| --- | --- | --- | --- |
| COC(=O)C1=C(C)NC(C)=C(C(=O)OCC=C(C)c2ccccc2)C1c1cccc([N+](=O)[O-])c1 (centres unmarked) [Example 5, 3-phenyl-2-butenyl methyl 4-(3-nitrophenyl)-2,6-dimethyl-1,4-dihydropyridine-3,5-dicarboxylate] | 1.0 | 44 | 65 |
| COC(=O)C1=C(C)NC(C)=C(C(=O)OC(C=Cc2ccccc2)C(C)(C)C)C1c1cccc([N+](=O)[O-])c1 (centres unmarked) [Example 6, 1-tert-butyl-3-phenyl-2-propenyl methyl 4-(3-nitrophenyl)-2,6-dimethyl-1,4-dihydropyridine-3,5-dicarboxylate] | 70 | 55 | > 90 |
| COC(=O)C1=C(C)NC(C)=C(C(=O)OC(C=Cc2ccccc2)C(C)C)C1c1cccc([N+](=O)[O-])c1 (centres unmarked) [Example 8, 1-isopropyl-3-phenyl-2-propenyl methyl 4-(3-nitrophenyl)-2,6-dimethyl-1,4-dihydropyridine-3,5-dicarboxylate] | 25 | 87 | > 180 |
| COC(=O)C1=C(C)NC(C)=C(C(=O)OCC=C(c2ccccc2)c2ccccc2)C1c1cccc([N+](=O)[O-])c1 (centres unmarked) [Example 9, 3,3-diphenyl-2-propenyl methyl 4-(3-nitrophenyl)-2,6-dimethyl-1,4-dihydropyridine-3,5-dicarboxylate] | 13 | 12 | > 240 |
| CCCC(C=Cc1ccccc1)OC(=O)C1=C(C)NC(C)=C(C(=O)OC)C1c1cccc([N+](=O)[O-])c1 (centres unmarked) [Example 10, 1-propyl-3-phenyl-2-propenyl methyl 4-(3-nitrophenyl)-2,6-dimethyl-1,4-dihydropyridine-3,5-dicarboxylate] | 12.5 | 72 | > 90 |
| COCCOC(=O)C1=C(C)NC(C)=C(C(=O)OCC=Cc2ccccc2)C1c1cccc([N+](=O)[O-])c1 (centres unmarked) [Example 13, Cinnamyl 2-methoxyethyl 4-(3-nitrophenyl)-2,6-dimethyl-1,4-dihydropyridine-3,5-dicarboxylate] | 2.0 | 35 | > 270 |
| COC(=O)C1=C(C)NC(C)=C(C(=O)OCCC=Cc2ccc(C)cc2)C1c1cccc([N+](=O)[O-])c1 (centres unmarked) [Example 20, 4-(p-methylphenyl)-3-butenyl methyl 4-(3-nitrophenyl)-2,6-dimethyl-1,4-dihydropyridine-3,5-dicarboxylate] | 1.8 | 52.5 | 90 |
| COC(=O)C1=C(C)NC(C)=C(C(=O)OCCC=Cc2ccc([N+](=O)[O-])cc2)C1c1cccc([N+](=O)[O-])c1 (centres unmarked) [Example 21, 4(p-nitrophenyl)-3-butenyl methyl 4-(3-nitrophenyl)-2,6-dimethyl-1,4-dihydropyridine-3,5-dicarboxylate] | 1.0 | 70 | > 120 |
| COC(=O)C1=C(C)NC(C)=C(C(=O)OCC(C)=Cc2ccccc2)C1c1cccc([N+](=O)[O-])c1 (centres unmarked) [Example 22, 2-methyl-3-phenyl-2-propenyl methyl 4-(3-nitrophenyl)-2,6-dimethyl-1,4-dihydropyridine-3,5-dicarboxylate] | 1.8 | 50 | 120 |
| COC(=O)C1=C(C)NC(C)=C(C(=O)OC(C)(C)C=Cc2ccccc2)C1c1cccc([N+](=O)[O-])c1 (centres unmarked) [Example 23, 1,1-dimethyl-3-phenyl-2-propenyl methyl 4-(3-nitrophenyl)-2,6-dimethyl-1,4-dihydropyridine-3,5-dicarboxylate] | 2.2 | 48 | – |
| CCC(C=Cc1ccccc1)OC(=O)C1=C(C)NC(C)=C(C(=O)OC)C1c1cccc([N+](=O)[O-])c1 (centres unmarked) [Example 25, 1-ethyl-3-phenyl-2-propenyl methyl 4-(3-nitrophenyl)-2,6-dimethyl-1,4-dihydropyridine-3,5-dicarboxylate] | 10 | 71 | > 240 |
| COC(=O)C1=C(C)NC(C)=C(C(=O)OCCC=Cc2ccsc2)C1c1cccc([N+](=O)[O-])c1 (centres unmarked) [Example 26, 4-(3-thienyl)-3-butenyl methyl 4-(3-nitrophenyl)-2,6-dimethyl-1,4-dihydropyridine-3,5-dicarboxylate] | 1.5 | 47 | – |
| COC(=O)C1=C(C)NC(C)=C(C(=O)OCC=Cc2ccc3ccccc3c2)C1c1cccc([N+](=O)[O-])c1 (centres unmarked) [Example 29, 3-(2-naphthyl)-2-propenyl methyl 4-(3-nitrophenyl)-2,6-dimethyl-1,4-dihydropyridine-3,5-dicarboxylate] | 5.0 | 25 | – |
| CCOC(=O)C1=C(C)NC(C)=C(C(=O)OC(C)C=Cc2ccccc2)C1c1cccc([N+](=O)[O-])c1 (centres unmarked) [Example 31, 1-methyl-3-phenyl-2-propenyl ethyl 4-(3-nitrophenyl)-2,6-dimethyl-1,4-dihydropyridine-3,5-dicarboxylate] | 40 | 73 | > 170 |
| CC1=C(C(=O)OC(C)C)C(c2cccc([N+](=O)[O-])c2)C(C(=O)OC(C)C=Cc2ccccc2)=C(C)N1 (centres unmarked) [Example 32, 1-methyl-3-phenyl-2-propenyl isopropyl 4-(3-nitrophenyl)-2,6-dimethyl-1,4-dihydropyridine-3,5-dicarboxylate] | 5 | 90 | > 190 |
| COCCOC(=O)C1=C(C)NC(C)=C(C(=O)OC(C)C=Cc2ccccc2)C1c1cccc([N+](=O)[O-])c1 (centres unmarked) [Example 34, 1-methyl-3-phenyl-2-propenyl 2-methoxyethyl 4-(3-nitrophenyl)-2,6-dimethyl-1,4-dihydropyridine-3,5-dicarboxylate] | 5 | 45 | > 230 |
| COC(=O)C1=C(C)NC(C)=C(C(=O)OCC=Cc2ccccc2)C1c1ccccc1F (centres unmarked) [Example 40, Cinnamyl methyl 4-(2-fluorophenyl)-2,6-dimethyl-1,4-dihydropyridine-3,5-dicarboxylate] | 1.4 | 60 | > 90 |
| CCSCCOC(=O)C1=C(C)NC(C)=C(C(=O)OCC=Cc2ccccc2)C1c1cccc([N+](=O)[O-])c1 (centres unmarked) [Example 41, cinnamyl 2-ethylthioethyl 4-(3-nitrophenyl)-2,6-dimethyl-1,4-dihydropyridine-3,5-dicarboxylate] | 5 | 28 | > 120 |
| CC1=C(C(=O)OCC=Cc2ccccc2)C(c2cccc([N+](=O)[O-])c2)C(C(=O)OCCSc2ccccc2)=C(C)N1 (centres unmarked) [Example 42, Cinnamyl 2-phenylthioethyl 4-(3-nitrophenyl)-2,6-dimethyl-1,4-dihydropyridine-3,5-dicarboxylate] | 10 | 35 | > 90 |
| CC1=C(C(=O)OCC=Cc2ccccc2)C(c2cccc([N+](=O)[O-])c2)C(C(=O)OCC=Cc2ccccc2)=C(C)N1 (centres unmarked) [Example 45, Dicinnamyl 4-(3-nitrophenyl)-2,6-dimethyl-1,4-dihydropyridine-3,5-dicarboxylate] | 27 | 32 | > 90 |
| CC1=C(C(=O)OCC#Cc2ccccc2)C(c2cccc([N+](=O)[O-])c2)C(C(=O)OCC=Cc2ccccc2)=C(C)N1 (centres unmarked) [Example 46, Cinnamyl phenylpropargyl 4-(3-nitrophenyl)-2,6-dimethyl-1,4-dihydropyridine-3,5-dicarboxylate] | 20 | 20 | – |
| CC1=C(C(=O)OCC=Cc2ccccc2)C(c2cccc([N+](=O)[O-])c2)C(C(=O)OC(C)C=Cc2ccccc2)=C(C)N1 (centres unmarked) [Example 47, Cinnamyl 1-methyl-3-phenyl-2-propenyl 4-(3-nitrophenyl)-2,6-dimethyl-1,4-dihydropyridine-3,5-dicarboxylate] | 48 | 67 | > 120 |
